# Assay: solvent given as SMILES
structure (smiles),measurement,setting,value
COc1cc2c3c(c4cc(OC)c(OC)c(OC)c4c2c(OC)c1OC)=[N+]1C(=C(c2c(C)cc(C)cc2C)c2cc4c5cc(OC)c(OC)c(OC)c5c5c(OC)c(OC)c(OC)cc5c4n2[B-]1(F)F)C=3,absorption maximum,in C1CCCCC1,733 nm
same,absorption maximum,in C1CCOC1,730 nm
same,absorption maximum,in CC#N,718 nm
same,absorption maximum,in Cc1ccccc1,740 nm
same,absorption maximum,in ClCCl,727 nm
O=c1c2cc(-n3c4ccccc4c4ccccc43)ccc2sc2ccc(-n3c4ccccc4c4ccccc43)cc12,absorption maximum,in C1CCOC1,408 nm
same,absorption maximum,in CCCCCC,408 nm
same,absorption maximum,in Cc1ccccc1,408 nm
same,absorption maximum,in ClC(Cl)Cl,408 nm
same,absorption maximum,in ClCCl,408 nm
COC(=O)c1ccc(/C=C2\C=C(c3ccc(C#N)cc3)OC2=O)cc1,absorption maximum,in C1COCCO1,404 nm
CCOC(=O)c1sc(SC)c2c(=O)n(C)nnc12,absorption maximum,in C1CCOC1,387.5 nm
same,absorption maximum,in CC#N,388 nm
same,absorption maximum,in CCO,391 nm
same,absorption maximum,in CN(C)C=O,391.5 nm
same,absorption maximum,in CO,391.5 nm
same,absorption maximum,in CS(C)=O,393.5 nm
CN1C(=CC2=C([S-])C(=Cc3sc4ccccc4[n+]3C)C2=O)C(C)(C)c2ccccc21,absorption maximum,in ClC(Cl)Cl,661 nm
COC(=O)c1ccc(/C=C2\N=C(c3ccc(OC)c(OC)c3)NC2=O)cc1,absorption maximum,in C1COCCO1,403 nm
Clc1ccc(-c2cccc3ncc(-c4ccccc4)n23)cc1,absorption maximum,in ClCCl,338 nm
O=C([O-])c1c2ccccc2c(C(=O)[O-])c2ccccc12,absorption maximum,in CN(C)C=O,400 nm
CC1(C)c2ccccc2N(c2ccc(-c3ccc(C#N)cn3)cc2)c2ccccc21,absorption maximum,in Cc1ccccc1,384 nm
CCCCCCCCCCCCOc1cc2c3cc(OCCCCCCCCCCCC)c(OCCCCCCCCCCCC)cc3c3c(cc(OCCCCCCCCCCCC)c4nc5cc(C#Cc6ccc(CCCCCCCCCC)cc6)c(C#Cc6ccc(CCCCCCCCCC)cc6)cc5nc43)c2cc1OCCCCCCCCCCCC,absorption maximum,in ClC(Cl)Cl,482 nm
CCC1(CC)c2cc(/C=C/c3ccc(/C=C/c4ccc5c(c4)C(CC)(CC)c4cc(N6c7ccccc7Sc7ccccc76)ccc4-5)cc3)ccc2-c2ccc(N3c4ccccc4Sc4ccccc43)cc21,absorption maximum,in C1CCOC1,444.73 nm
same,absorption maximum,in CC#N,441.5 nm
same,absorption maximum,in CCCCCC,440.65 nm
same,absorption maximum,in Cc1ccccc1,446.43 nm
same,absorption maximum,in ClCCl,418 nm
O=C1c2ccc(N(c3ccccc3)c3ccccc3)cc2C(=O)c2ccc(N(c3ccccc3)c3ccccc3)cc21,absorption maximum,in Cc1ccccc1,449 nm
N#CC1=CC(c2ccccc2)=CC(C#N)=P1(c1ccccc1)c1ccccc1,absorption maximum,in ClC(Cl)Cl,480 nm
O=c1c2ccccc2[nH]c2ccccc12,absorption maximum,in CS(C)=O,398 nm
same,absorption maximum,in O,385 nm
CC(C)(C)c1ccc(-c2cc(-c3ccc(-c4cc(-c5ccc(C(C)(C)C)cc5)c(C(=O)NCc5cccs5)s4)s3)sc2C(=O)NCc2cccs2)cc1,absorption maximum,in ClCCl,394 nm
Nc1cccc2cccc(N)c12,absorption maximum,in CC#N,349 nm
same,absorption maximum,in CO,334 nm
same,absorption maximum,in CS(C)=O,354 nm
same,absorption maximum,in Cc1ccccc1,334 nm
Cc1c2c(c(C)c3ccccc13)-c1c-2ccc2nc3ccccc3nc12,absorption maximum,in ClC(Cl)Cl,455 nm
COc1ccc(N(c2ccc(C=C(c3ccccc3)c3ccccc3)cc2)c2ccc(OC)cc2)cc1,absorption maximum,in Cc1ccccc1,376 nm
CN(C)c1ccc(C(=Cc2ccc(/C=C(\C#N)c3ccccc3)cc2)c2ccc(N(C)C)cc2)cc1,absorption maximum,in C1CCOC1,436 nm
CN(C)c1ccc(/C=C/C(=O)c2ccc(Cl)cc2)cc1,absorption maximum,in C1CCOC1,413 nm
same,absorption maximum,in CC#N,419 nm
same,absorption maximum,in CC(=O)O,430 nm
same,absorption maximum,in CC(C)=O,418 nm
same,absorption maximum,in CCO,429 nm
same,absorption maximum,in CN(C)C=O,427 nm
same,absorption maximum,in CO,428 nm
same,absorption maximum,in Cc1ccccc1,416 nm
same,absorption maximum,in ClC(Cl)Cl,426 nm
same,absorption maximum,in c1ccccc1,420 nm
COc1ccc2c(c1)-c1ccccc1C2=O,absorption maximum,in C1CCCCC1,365 nm
same,absorption maximum,in CC#N,379 nm
same,absorption maximum,in CCO,387 nm
CC(C)(C)c1ccc2c(c1)c1cc(C(C)(C)C)ccc1n2-c1c(C#N)c(-n2c3ccc(C(C)(C)C)cc3c3cc(C(C)(C)C)ccc32)c(-n2c3ccc(C(C)(C)C)cc3c3cc(C(C)(C)C)ccc32)c(-n2c3ccc(C(C)(C)C)cc3c3cc(C(C)(C)C)ccc32)c1-n1c2ccc(C(C)(C)C)cc2c2cc(C(C)(C)C)ccc21,absorption maximum,in Cc1ccccc1,427.95 nm
CCN(CC)c1ccc2c(c1)oc(=O)c1c(C)nc3c(c(-c4ccccc4)nn3-c3ccccc3)c12,absorption maximum,in ClCCl,410 nm
Cn1c(=O)cc(C(=O)c2ccccc2)c2sc(-c3ccc(OC(F)(F)F)cc3)cc21,absorption maximum,in CC#N,394 nm
same,absorption maximum,in ClCCl,400 nm
CCCCCCCCCCOc1ccc2c3c(oc2c1)C1=C2C(=O)N4C=Cc5c(oc6cc(OCCCCCCCCCC)ccc56)C4=C2C(=O)N1C=C3,absorption maximum,in CN(C)C=O,648 nm
same,absorption maximum,in ClC(Cl)Cl,648 nm
COc1ccc(C2=C/C(=C\c3ccccc3)C(=O)N2)cc1OC,absorption maximum,in C1COCCO1,431 nm
COc1cc2c(cc1-c1ccc(C#N)cc1)Cc1c3c(c4c(c1-2)-c1cc(OC)c(-c2ccc(C#N)cc2)cc1C4)C(=O)N(CCC(C)C)C3=O,absorption maximum,in C1CCOC1,409 nm
Cc1cc(=O)oc2cc3c4ccc(C(C)(C)C)cc4c4cc(C(C)(C)C)ccc4c3cc12,absorption maximum,in ClC(Cl)Cl,385 nm
CCOC(=O)c1c(-c2cc3c(ccc4ccccc43)oc2=O)nn(-c2cccc(Cl)c2)c1C(=O)OCC,absorption maximum,in ClCCl,361 nm
c1cc2ccc3cccc4ccc(c1)c2c34,absorption maximum,in C1CCCCC1,334 nm
same,absorption maximum,in CC#N,335 nm
same,absorption maximum,in CCCCCC,330 nm
same,absorption maximum,in CCO,334 nm
same,absorption maximum,in CCOC(C)=O,335 nm
same,absorption maximum,in CO,330 nm
same,absorption maximum,in Cc1ccccc1,362 nm
same,absorption maximum,in ClC(Cl)Cl,337 nm
same,absorption maximum,in ClCCl,333 nm
Cn1nc(-c2ccc(C(F)(F)F)cc2)cc1-c1ccccc1,absorption maximum,in ClCCl,260 nm
CCN(CC)c1ccc2cc3c(cc2c1)C1(c2ccccc2Oc2ccccc21)c1cc2cc(N(CC)CC)ccc2cc1C3=O,absorption maximum,in CC#N,452 nm
CN(C)c1ccc(/C=C2\CCCC2=O)cc1,absorption maximum,in CC#N,380 nm
same,absorption maximum,in CC(C)=O,379 nm
same,absorption maximum,in CC(C)O,390 nm
same,absorption maximum,in CCCCCC,357 nm
same,absorption maximum,in CCCCO,392 nm
same,absorption maximum,in CCCO,394 nm
same,absorption maximum,in CCO,390 nm
same,absorption maximum,in CCOC(C)=O,370 nm
same,absorption maximum,in CCOCC,365 nm
same,absorption maximum,in CN(C)C=O,383 nm
same,absorption maximum,in CO,391 nm
same,absorption maximum,in CS(C)=O,383 nm
same,absorption maximum,in Cc1ccccc1,373 nm
same,absorption maximum,in ClC(Cl)(Cl)Cl,370 nm
same,absorption maximum,in ClC(Cl)Cl,383 nm
same,absorption maximum,in ClCCl,383 nm
same,absorption maximum,in S=C=S,387 nm
same,absorption maximum,in c1ccccc1,380 nm
same,absorption maximum,in c1ccncc1,384 nm
c1ccc(C2c3ccc4ccc5ccccc5c4c3-c3c2ccc2ccc4ccccc4c32)cc1,absorption maximum,in ClCCl,401 nm
CC1(C)C(/C=C2\C(=O)C(/C=C3\Nc4ccccc4C3(C)C)=C2[O-])=[NH+]c2ccccc21,absorption maximum,in ClC(Cl)Cl,654 nm
COc1cc2c3c4c(c5ccc(C(C)(C)C)cc5c5c(OC)c(OC)c(OC)c(c2c(OC)c1OC)c45)=[N+]1C3=Nc2c3c4cc(OC)c(OC)c(OC)c4c4c(OC)c(OC)c(OC)c5c6cc(C(C)(C)C)ccc6c(c3c54)n2[B-]1(F)F,absorption maximum,in Cc1ccccc1,850 nm
CCN(CC)c1ccc2cc(/C=C/C(O)=C3\CC/C(=C\c4cc5ccc(N(CC)CC)cc5oc4=O)C3=O)c(=O)oc2c1,absorption maximum,in C1COCCO1,513 nm
same,absorption maximum,in CC#N,532 nm
same,absorption maximum,in CC(C)=O,526 nm
same,absorption maximum,in CCOC(C)=O,516 nm
same,absorption maximum,in CN(C)C=O,546 nm
same,absorption maximum,in CS(C)=O,556 nm
same,absorption maximum,in Cc1ccccc1,511 nm
same,absorption maximum,in ClC(Cl)Cl,525 nm
N#Cc1c(-n2c3ccccc3c3cc(Br)ccc32)c(C#N)c(-n2c3ccccc3c3cc(Br)ccc32)c(-n2c3ccccc3c3cc(Br)ccc32)c1-n1c2ccccc2c2cc(Br)ccc21,absorption maximum,in Cc1ccccc1,381 nm
CC(C)(C)c1ccc(-c2cc3cc4c(cc(-c5ccc(C(C)(C)C)cc5)p4-c4ccccc4)cc3p2-c2ccccc2)cc1 (stereo unspecified),absorption maximum,in C1CCOC1,396 nm
CC(C)(C)[Si](C)(C)c1cccc2ccccc12,absorption maximum,in C1CCCCC1,295 nm
CCN(CC)c1ccc2c(-c3ccccc3C(=O)O)c3c([o+]c2c1)/C(=C/Nc1ccccc1)CCC3,absorption maximum,in CCO,595 nm
same,absorption maximum,in ClC(Cl)Cl,608 nm
same,absorption maximum,in ClCCl,607 nm
CCC1(CC)c2cc(-c3ccc(C(C)(C)C)cc3)ccc2-c2ccc(-c3ccc4c(c3)C(CC)(CC)c3cc(-c5ccc6c(c5)C(CC)(CC)c5cc(-c7ccc(C(C)(C)C)cc7)ccc5-6)ccc3-4)cc21,absorption maximum,in CO,360.54 nm
CC(C)(C)c1ccc2c(c1)c1cc(C(C)(C)C)ccc1n2-c1ccc(-c2cccs2)s1,absorption maximum,in ClCCl,340 nm
CCC1(CC)c2ccccc2-c2c1c1c(c3c2C(CC)(CC)c2cc(B(c4c(C)cc(C)cc4C)c4c(C)cc(C)cc4C)ccc2-3)C(CC)(CC)c2cc(B(c3c(C)cc(C)cc3C)c3c(C)cc(C)cc3C)ccc2-1,absorption maximum,in C1CCOC1,364 nm
same,absorption maximum,in CC#N,359 nm
same,absorption maximum,in CC(C)=O,360 nm
same,absorption maximum,in CCCCCC,362 nm
same,absorption maximum,in ClC(Cl)Cl,362 nm
COc1ccc(C#Cc2nc(C#Cc3ccc(OC)cc3)c(C#Cc3ccc(OC)cc3)c(C#Cc3ccc(OC)cc3)c2C#Cc2ccc(OC)cc2)cc1,absorption maximum,in ClCCl,421 nm
CC(C)Oc1ccc(C#Cc2ccc3ccc(=O)oc3c2)cc1,absorption maximum,in CC#N,310 nm
CCOC(=O)c1cc(C(=O)OCC)c2ccc(O)cc2n1,absorption maximum,in CCO,373 nm
C(#Cc1ncc(-c2ccccc2)o1)c1ccco1,absorption maximum,in ClCCl,325 nm
Cc1nc2c(ccc3c2sc(/C=C/c2ccc(N(c4ccccc4)c4ccccc4)cc2)[n+]3C)s1,absorption maximum,in CO,522 nm
same,absorption maximum,in ClC(Cl)Cl,561 nm
Cc1c(C)n2c(COC(=O)c3ccccc3O)c(C)c(=O)n2c1=O,absorption maximum,in CCO,379 nm
C(=C\c1ncccn1)/c1ccc(-c2ccc(N(c3ccccc3)c3ccccc3)cc2)cc1,absorption maximum,in ClCCl,373 nm
COc1ccc2c3c(c4ccc(OC)cc4c2c1)C(C)(C)c1ccccc1-3,absorption maximum,in C1CCCCC1,388 nm
C(=C\c1ccncn1)/c1ccc(N(c2ccccc2)c2ccccc2)cc1,absorption maximum,in C1CCOC1,398 nm
same,absorption maximum,in CC#N,394 nm
same,absorption maximum,in CCCCCCC,392 nm
same,absorption maximum,in CS(C)=O,401 nm
same,absorption maximum,in ClCCl,400 nm

# From the Deep4Chem optical property database
